In patent US20170291890A1 (Epizyme, Inc., priority 2014, published 2017) one finds IC50 data, which are given here for 17 compounds.

The experiment addresses T1, KDM4C (Homo sapiens, UniProt Q9H3R0).
T1 construct: N-terminal GST-tagged KDM4C^2-372 was purchased from BPS Biosciences; GST (N); purchased BPS Biosciences
T1 sequence (Q9H3R0 2-372): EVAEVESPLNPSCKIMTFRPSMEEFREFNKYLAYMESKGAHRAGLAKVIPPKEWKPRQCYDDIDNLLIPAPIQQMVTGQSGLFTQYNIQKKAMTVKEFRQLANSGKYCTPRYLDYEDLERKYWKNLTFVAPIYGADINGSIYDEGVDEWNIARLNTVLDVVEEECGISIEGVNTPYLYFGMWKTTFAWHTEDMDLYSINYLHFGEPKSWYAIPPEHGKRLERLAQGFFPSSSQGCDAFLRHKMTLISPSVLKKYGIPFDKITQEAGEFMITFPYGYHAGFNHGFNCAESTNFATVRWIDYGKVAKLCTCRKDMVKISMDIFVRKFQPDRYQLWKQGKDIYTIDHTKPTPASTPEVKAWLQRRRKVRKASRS
The experiment can be described thus: KDM4C Assay (SAMDI mass spectrometry demethylase assay). The following applies: N-terminal GST-tagged KDM4C 2-372; class symbols; read-out: 4C IC50. Type of experiment: biochemical. The essentials:
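GST-tagged KDM4C 2-372 (5 nM) preincubated 30 min with compound, then H3K9me3 biotinylated peptide (500 nM) and 2-oxoglutarate (15 μM) added in HEPES pH 8.0 with ascorbate, Fe(II), TCEP; 150 min at 25 °C, formic-acid quench. Conversion by SAMDI mass spectrometry from substrate/product peak AUC; IC50 from dose-response.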

Each structure is given as a SMILES string.

As a reminder, the IC50 is the concentration that inhibits the measured activity by half.

Regarding `O=C(O)c1ccncc1Nc1nn(-c2ccccc2)cc1-c1ccccc1` [Compound 42, 3-((1,4-diphenyl-1H-pyrazol-3-yl)amino)isonicotinic acid], the IC50 was in the range of 100 to 1000 nM.

For `O=C(O)c1ccncc1Nc1c(-c2ccccc2)cnn1-c1ccccc1` [Compound 43, 3-((1,4-Diphenyl-1H-pyrazol-5-yl)amino)isonicotinic acid], the IC50 was in the range of 10000 to 100000 nM.

Regarding `O=C(O)c1ccncc1Nc1nn(CCN2CCC(F)(F)CC2)cc1-c1ccc(F)cc1` [Compound 45, 3-((1-(2-(4,4-difluoropiperidin-1-yl)ethyl)-4-(4-fluorophenyl)-1H-pyrazol-3-yl)amino)isonicotinic acid], the IC50 lay within 100 to 1000 nM.

Regarding `O=C(O)c1ccncc1Nc1c(-c2ccc(F)cc2)cnn1CCN1CCC(F)(F)CC1` [Compound 46, 3-((1-(2-(4,4-difluoropiperidin-1-yl)ethyl)-4-(4-fluorophenyl)-1H-pyrazol-5-yl)amino) isonicotinic acid], the IC50 is 10000 to 100000 nM.

On to `CN(C)CCCn1cc(-c2ccccc2)c(Nc2cnccc2C(=O)O)n1` [Compound 51, 3-((1-(3-(dimethylamino)propyl)-4-phenyl-1H-pyrazol-3-yl)amino) isonicotinic acid], for which the half-maximal inhibitory concentration (IC50) fell in the range of 100 to 1000 nM.

Consider `CN(C)CCCn1ncc(-c2ccccc2)c1Nc1cnccc1C(=O)O` [Compound 52, 3-((1-(3-(dimethylamino)propyl)-4-phenyl-1H-pyrazol-5-yl)amino) isonicotinic acid], for which the IC50 fell in the range of 10000 to 100000 nM.

For the compound `Cc1c(-c2ccccc2)nn(C)c1Nc1cnccc1C(=O)O` [Compound 53, 3-((1,4-dimethyl-3-phenyl-1H-pyrazol-5-yl)amino)isonicotinic acid], the IC50 is 100 to 1000 nM.

For `Cc1n[nH]c(-c2ccccc2)c1Nc1cnccc1C(=O)O` [Compound 55, 3-((5-methyl-3-phenyl-1H-pyrazol-4-yl)amino)isonicotinic acid], the IC50 is 1000 to 10000 nM.

Consider `O=C(O)c1ccncc1Nc1cc(-c2ccccc2)nn1-c1ccncc1` [Compound 56, 3-((3-phenyl-1-(pyridin-4-yl)-1H-pyrazol-5-yl)amino) isonicotinic acid], for which the IC50 lay within 100 to 1000 nM.

`O=C(O)c1ccncc1Nc1nn(CCN2CCC(F)(F)CC2)cc1C1CCCCC1` [Compound 57, 3-((4-cyclohexyl-1-(2-(4,4-difluoropiperidin-1-yl)ethyl)-1H-pyrazol-3-yl)amino)isonicotinic acid]: the half-maximal inhibitory concentration (IC50) lay in the range of 100 to 1000 nM.

For the compound `CNC(=O)c1ccc(-n2ncc(Nc3cnccc3C(=O)O)c2C)cc1` [Compound 58, 3-((5-methyl-1-(4-(methylcarbamoyl)phenyl)-1H-pyrazol-4-yl)amino) isonicotinic acid], the IC50 is 1 to 100 nM.

`CNC(=O)c1cccc(-n2ncc(Nc3cnccc3C(=O)O)c2C)c1` [Compound 59, 3-((5-methyl-1-(3-(methylcarbamoyl)phenyl)-1H-pyrazol-4-yl)amino) isonicotinic acid]: the IC50 fell in the range of 1 to 100 nM.

With `Cc1cc(Nc2cnccc2C(=O)O)nn1-c1ccccc1` [Compound 60, 3-((5-methyl-1-phenyl-1H-pyrazol-3-yl)amino)isonicotinic acid], the IC50 was 100 to 1000 nM.

For `Cc1cc(Nc2cnccc2C(=O)O)n(-c2ccccc2)n1` [Compound 61, 3-((3-methyl-1-phenyl-1H-pyrazol-5-yl)amino) isonicotinic acid], the IC50 was 100 to 1000 nM.

In the case of `Cc1cn(-c2ccccc2)nc1Nc1cnccc1C(=O)O` [Compound 62, 3-((4-methyl-1-phenyl-1H-pyrazol-3-yl)amino) isonicotinic acid], the IC50 was in the range of 1 to 100 nM.

In the case of `COc1ccccc1-n1cc(C)c(Nc2cnccc2C(=O)O)n1` [Compound 63, 3-((1-(2-methoxyphenyl)-4-methyl-1H-pyrazol-3-yl)amino) isonicotinic acid], the 50% inhibitory concentration (IC50) fell in the range of 100 to 1000 nM.

With `CN(C)CCn1cc(-c2ccccc2)c(Nc2cnccc2C(=O)O)n1` [Compound 64, 3-((1-(2-(dimethylamino)ethyl)-4-phenyl-1H-pyrazol-3-yl)amino)isonicotinic acid], the 50% inhibitory concentration (IC50) was in the range of 1 to 100 nM.
